Data from patent publication US20140031217A1, “HERBICIDAL COMPOSITIONS COMPRISING 4-AMINO-3-CHLORO-5-FLUORO-6-(4-CHLORO-2-FLUORO-3-METHOXYPHENYL)PYRIDINE-2-CARBOXYLIC ACID OR A DERIVATIVE THEREOF AND AUXIN TRANSPORT INHIBITORS” (DOW AGROSCIENCES LLC, priority 2012, published 2014).

How the values were obtained:
ECHCG = experiment: Postemergence foliar-applied greenhouse weed control, ECHCG; type: in vivo, Echinochloa crusgalli (L.) Beauv.; conditions: 20 DAA
Excerpt: (§1) Seeds or nutlets of the desired test plant species were planted in a soil matrix prepared by mixing a loam or sandy loam soil (e.g., 28.6 percent silt, 18.8 percent clay, and 52.6 percent sand, with a pH of about 5.8 and an organic matter content of about 1.8 percent) and calcareous grit in an 80 to 20 ratio. The soil matrix was contained in plastic pots with a volume of 1 quart and a surface area of 83.6 square centimeters (cm^2). When required to ensure good germination and healthy plants, a fungicide treatment and/or other chemical or physical treatment was applied. The plants were grown for 8-22 days in a greenhouse with an approximate 14 h photoperiod which was maintained at about 29° C. during the day and 26° C. during the night. Nutrients (Peters Excel® 15-5-15 5-Ca 2-Mg and iron chelate) were applied in the irrigation solution as needed and water was added on a regular basis. Supplemental lighting was provided with overhead metal halide 1000-Watt lamps as necessary. The plants were employed for testing when they reached the first through fourth true leaf stage.
(§2) Treatments consisted of the acid or esters of 4-amino-3-chloro-5-fluoro-6-(4-chloro-2-fluoro-3-methoxy-phenyl) pyridine-2-carboxylic acid (Compound A), each formulated as an SC (suspension concentrate), and various herbicidal components alone and in combination. Forms of compound A were applied on an acid equivalent basis.
(§3) Other herbicidal components were applied on an active ingredient basis and included auxin transport inhibiting (ATI) herbicides chlorflurenol (technical material), chlorflurenol-methyl (technical material), diflufenzopyr (technical material), diflufenzopyr sodium (technical material), flurenol-methyl (technical material) and naptalam (technical material).
(§4) Treatment requirements were calculated based upon the rates being tested, the concentration of active ingredient or acid equivalent in the formulation, and a 12 mL application volume at a rate of 187 L/ha.
(§5) For treatments comprised of formulated and technical compounds, weighed amounts of the technical materials were placed individually in 25 mL glass vials and dissolved in a volume of 97:3 v/v acetone/DMSO to obtain 12× stock solutions, and measured amounts of the formulated compounds were placed individually in 25 mL glass vials and diluted in a volume of 1.5% (v/v) crop oil concentrate or water to obtain 12× stock solutions. […] Application solutions were prepared by adding an appropriate amount of each stock solution (e.g., 1 mL) and diluted to the appropriate final concentrations with the addition of an appropriate amount of an aqueous mixture of 1.5% (v/v) crop oil concentrate so that the final spray solutions contained 1.25% (v/v) crop oil concentrate. When required, additional water and/or 97:3 v/v acetone/DMSO was added to individual application solutions so that the final acetone and DMSO concentrations of the application solutions being compared were 8.1% and 0.25%, respectively.
(§6) All stock solutions and applications solutions were visually inspected for compound compatibility prior to application. Spray solutions were applied to the plant material with an overhead Mandel track sprayer equipped with an 8002E nozzle calibrated to deliver 187 L/ha over an application area of 0.503 m^2 at a spray height of 18 to 20 inches (46 to 50 cm) above average plant canopy height. Control plants were sprayed in the same manner with the solvent blank.
(§7) The treated plants and control plants were placed in a greenhouse as described above and watered by sub-irrigation to prevent wash-off of the test compounds. After approximately 3 weeks, the condition of the test plants as compared with that of the untreated plants was determined visually and scored on a scale of 0 to 100 percent where 0 corresponds to no injury or growth inhibition and 100 corresponds to complete kill. […]

LEFCH = experiment: In-water applied (paddy) greenhouse weed control, LEFCH; type: in vivo, Leptochloa chinensis (L.) Nees; conditions: 20 DAA
Method: Weed seeds or nutlets of the desired test plant species were planted in puddled soil (mud) prepared by mixing a shredded, non-sterilized mineral soil (50.5 percent silt, 25.5 percent clay, and 24 percent sand, with a pH of about 7.6 and an organic matter content of about 2.9 percent) and water at a 1:1 volumetric ratio. The prepared mud was dispensed in 365 mL aliquots into 16-ounce (oz.) non-perforated plastic pots with a surface area of 86.59 square centimeters (cm^2) leaving a headspace of 3 centimeters (cm) in each pot. Mud was allowed to dry overnight prior to planting or transplanting. Rice seeds were planted in Sun Gro MetroMix® 306 planting mixture, which typically has a pH of 6.0 to 6.8 and an organic matter content of about 30 percent, in plastic plug trays. Seedlings at the second or third leaf stage of growth were transplanted into 840 mL of mud contained in 32-oz. non-perforated plastic pots with a surface area of 86.59 cm^2 4 days prior to herbicide application. The paddy was created by filling the headspace of the pots with 2.5 to 3 cm of water. When required to ensure good germination and healthy plants, a fungicide treatment and/or other chemical or physical treatment was applied. The plants were grown for 4-22 days in a greenhouse with an approximate 14 h photoperiod which was maintained at about 29′C during the day and 26° C. during the night. Nutrients were added as Osmocote® (19:6:12, N:P:K+minor nutrients) at 2 g per 16-oz. pot and 4 g per 960-mL 32-oz. pot. Water was added on a regular basis to maintain the paddy flood, and supplemental lighting was provided with overhead metal halide 1000-Watt lamps as necessary. The plants were employed for testing when they reached the second or third true leaf stage.
Treatments consisted of the acid or esters of 4-amino-3-chloro-5-fluoro-6-(4-chloro-2-fluoro-3-methoxy-phenyl)pyridine-2-carboxylic acid (compound A) each formulated as an SC and various herbicidal components alone and in combination. Forms of compound A were applied on an acid equivalent basis.
Other herbicidal components were applied on an active ingredient basis and included auxin transport inhibiting (ATI) herbicides chlorflurenol-methyl (technical material), chlorflurenol (technical material), diflufenzopyr (technical material), dilfufenzopyr sodium (technical material), flurenol-methyl (technical material,) and naptalam (technical material).
Treatment requirements for each compound or herbicidal component were calculated based upon the rates being tested, the concentration of active ingredient or acid equivalent in the formulation, an application volume of 2 mL per component per pot, and an application area of 86.59 cm^2 per pot.
For formulated compounds, a measured amount was placed in an individual 100 or 200 mL glass vial and was dissolved in a volume of 1.25% (v/v) Agri-Dex® crop oil concentrate to obtain application solutions.
For technical grade compounds, a weighed amount was placed in an individual 100 to 200 mL glass vial and was dissolved in a volume of acetone to obtain concentrated stock solutions. […] The concentrated stock solutions obtained were diluted with an equivalent volume of an aqueous mixture containing 2.5% (v/v) crop oil concentrate so that the final application solutions contained 1.25% (v/v) crop oil concentrate.
Applications were made by injecting with a pipetter appropriate amounts of the application solutions, individually and sequentially, into the aqueous layer of the paddy. Control plants were treated in the same manner with the solvent blank. Applications were made so that all treated plant material received the same concentrations of acetone and crop oil concentrate.
The treated plants and control plants were placed in a greenhouse as described above and water was added as needed to maintain a paddy flood. […]

DIGSA = experiment: Postemergence foliar-applied greenhouse weed control, DIGSA; type: in vivo, Digitaria sanguinalis (L.) Scop.
Excerpt: as §1, §2, §3, §4, §5, §6, §7

COc1c(Cl)ccc(-c2nc(C(=O)O)c(Cl)c(N)c2F)c1F [Compound A Acid, 4-amino-3-chloro-6-(4-chloro-2-fluoro-3-methoxyphenyl)-5-fluoropyridine-2-carboxylic acid]
Visual Weed Control (%) Obs (ECHCG; 4.38 gae/ha): 60% | Visual Weed Control (%) Obs (ECHCG; 8.75 gae/ha): 80% | Visual Weed Control (%) Obs (LEFCH; 8.75 gae/ha): 20% | Visual Weed Control (%) Obs (LEFCH; 17.5 gae/ha): 0% | Visual Weed Control (%) Obs (LEFCH; 35 gae/ha): 30%

COc1c(Cl)ccc(-c2nc(C(=O)OCc3ccccc3)c(Cl)c(N)c2F)c1F [Compound A Benzyl Ester]
Visual Weed Control (%) Obs (DIGSA; 20 DAA, 4.38 gae/ha): 40% | Visual Weed Control (%) Obs (DIGSA; 20 DAA, 8.75 gae/ha): 40% | Visual Weed Control (%) Obs (DIGSA; 21 DAA, 17.5 gae/ha): 30% | Visual Weed Control (%) Obs (ECHCG; 4.38 gae/ha): 60% | Visual Weed Control (%) Obs (LEFCH; 4.38 gae/ha): 0% | Visual Weed Control (%) Obs (LEFCH; 8.75 gae/ha): 20% | Visual Weed Control (%) Obs (LEFCH; 17.5 gae/ha): 30%
